Measurements taken from patent publication US8343924B2, “Composition for improving brain function and method for improving brain function” (Calpis Co., Ltd., priority 2009, dated 2013).

Experiments:
human T2R receptor = conditions: functions as a bitter substance; cited from earlier work
[1] = tested on: scopolamine-induced amnesia; test: Y-shaped maze test, prophylactic activity against scopolamine-induced amnesia; format: in vivo; conditions: male ddY mice, scopolamine 1 mg/kg s.c. 30 min before test
From the text: The effect in improving brain function of the composition of the present invention, or the peptide the peptide Pro-Val-Arg-Gly-Pro-Phe-Pro-Ile-Ile-Val (SEQ ID NO: 2) or the peptide Val-Arg-Gly-Pro-Phe-Pro-Ile-Ile-Val (SEQ ID NO: 1) may be confirmed using a system based on an evaluation system for therapeutic drugs against Alzheimer's disease, the system using a Y-shaped maze test, for example. Specifically, a muscarinic receptor antagonist, such as scopolamine, may be used on a rat or a mouse so as to cause a hypofunction of the cholinergic neurons. Then, either the rat or the mouse may be administered with a drug, which induces amnesia by causing brain dysfunction, by itself, or the composition of the present invention, the peptide Pro-Val-Arg-Gly-Pro-Phe-Pro-Ile-Ile-Val (SEQ ID NO: 2) or the peptide Val-Arg-Gly-Pro-Phe-Pro-Ile-Ile-Val (SEQ ID NO: 1) together with such a drug, or the rat or the mouse may be administered, prior to the administration of such a drug, with the composition of the present invention, the peptide Pro-Val-Arg-Gly-Pro-Phe-Pro-Ile-Ile-Val (SEQ ID NO: 2) or the peptide Val-Arg-Gly-Pro-Phe-Pro-Ile-Ile-Val (SEQ ID NO: 1). Then, the mouse or the rat may be subjected to a test using a Y-shaped maze so that the prophylactic actions against amnesia of the composition of the present invention may be confirmed by using the percentage of change in spontaneous alternation behavior to different arms and the total number of entries into the maze as indicators.
Male mice (n=15 to 30) of the ddY strain (approximately 7-week old) were used, and they took food and water ad lib. Test substances used were 3 nmol/kg weight (3 μg/kg weight) and 30 nmol/kg weight (30 μg/kg weight) of Pro-Val-Arg-Gly-Pro-Phe-Pro-Ile-Ile-Val (SEO ID NO: 2). The test substances were administered to the mice once orally 60 minutes before the execution of a Y-shaped maze test for evaluation of spontaneous alternation behavior. […] The sequence of the arms each of the mice entered was recorded. The number of entries by each of the mice for each of the arms during the measurement time was counted to be the total number of entries. […] The percentage of spontaneous alternation behavior was calculated by dividing the number of spontaneous alternation behavior by a number obtained by subtracting 2 from the total number of entries, and multiplying a resultant number by 100. […] The measured values were expressed in the form of mean±standard error for each group. A significant difference between the control group and the scopolamine control group was calculated using Student's t-test. Further, a significant difference between the scopolamine control group and the PVRGPFPIIV (SEQ ID NO: 2)-administered group was calculated using Dunnett's multiple comparison test after one-way analysis of variance. […]

[2] = Example 2, 3 nmol/kg weight (3 μg/kg) once orally 60 min before test

Row | Sequence | binding to human T2R receptor (receptor for bitter substances) (human T2R receptor) | prophylactic activity against amnesia (percentage of spontaneous alternation behavior) ([1]; Example 1, 3 nmol/kg weight to 30 nmol/kg weight (3 μg/kg to 30 μg/kg) once orally 60 min before test) | prophylactic activity against amnesia (percentage of spontaneous alternation behavior) [1, 2]
1 | PVRGPFPIIV (Synthetic functional peptide) [Pro-Val-Arg-Gly-Pro-Phe-Pro-Ile-Ile-Val] | binds to a human T2R receptor | had a prophylactic activity against amnesia | had a prophylactic activity against amnesia
2 | RGPFPIIV (Synthetic comparative example peptide) [Arg-Gly-Pro-Phe-Pro-Ile-Ile-Val] |  |  | did not show any activity
3 | VRGPFPIIV (Synthetic functional peptide) [Val-Arg-Gly-Pro-Phe-Pro-Ile-Ile-Val] |  |  | had a prophylactic activity against amnesia
